Source: publication PMC11435058, “Synthesis of New Thiazole-Privileged Chalcones as Tubulin Polymerization Inhibitors with Potential Anticancer Activities” (Pharmaceuticals, 2024)

Legend:
Test in all cases: NCI-60 anticancer screen (SRB; single dose and five doses)
MALME-3M = details: Homo sapiens, read-out: TGI
UO-31 = details: Homo sapiens
OVCAR-8 = details: Homo sapiens
HL-60(TB) = details: Homo sapiens
CAKI-1 = details: Homo sapiens
MCF7 = details: Homo sapiens
SF-539 = details: Homo sapiens
SK-OV-3 = details: Homo sapiens
MOLT-4 = details: Homo sapiens
SW-620 = details: Homo sapiens
UACC-257 = details: Homo sapiens
SF-268 = details: Homo sapiens
SK-MEL-5 = details: Homo sapiens

## COc1cc(/C=C/C(=O)c2sc(=S)[nH]c2C)cc(OC)c1OC [2p, (E)-1-(4-Methyl-2-Thioxo-2,3-Dihydrothiazol-5-yl)-3-(3,4,5-Trimethoxyphenyl)Prop-2-En-1-One]
MALME-3M
  IC (TGI): 20.4 µM
UO-31; UO-31
  GI50: 3.02 µM
  IC50: 7.76 µM
UO-31; UO-31, read-out: TGI
  IC (TGI): 15.5 µM
OVCAR-8; OVCAR-8
  GI50: 2140 nM
  IC50: 3.55 µM
OVCAR-8; OVCAR-8, 48 h, read-out: Growth Percentage
  activity at 10 µM: 4.32%
OVCAR-8; OVCAR-8, read-out: LC50
  CC50: 45.7 µM
OVCAR-8; OVCAR-8, read-out: TGI
  IC (TGI): 5.5 µM
HL-60(TB); HL-60
  GI50: 2570 nM
  IC50: 3.89 µM
HL-60(TB); HL-60, 48 h, read-out: Growth Percentage
  activity at 10 µM: 3.95%
HL-60(TB); HL-60, read-out: LC50
  CC50: > 100 µM
HL-60(TB); HL-60, read-out: TGI
  IC (TGI): 11.2 µM
CAKI-1; CAKI-1
  GI50: 2570 nM
  IC50: 4.68 µM
CAKI-1; CAKI-1, 48 h, read-out: Growth Percentage
  activity at 10 µM: 28.2%
CAKI-1; CAKI-1, read-out: LC50
  CC50: 45.7 µM
CAKI-1; CAKI-1, read-out: TGI
  IC (TGI): 13.2 µM
MCF7; MCF7
  GI50: 3.02 µM
  IC50: 4.27 µM
MCF7; MCF7, 48 h, read-out: Growth Percentage
  activity at 10 µM: 9.35%
MCF7; MCF7, read-out: LC50
  CC50: 45.7 µM
MCF7; MCF7, read-out: TGI
  IC (TGI): 10.7 µM
SF-539; SF-539
  GI50: 2190 nM
  IC50: 4.47 µM
SF-539; SF-539, 48 h, read-out: Growth Percentage
  activity at 10 µM: -13.9%
SF-539; SF-539, read-out: TGI
  IC (TGI): 5.5 µM
SK-OV-3; SK-OV-3
  GI50: 7.41 µM
  IC50: 46.8 µM
SK-OV-3; SK-OV-3, 48 h, read-out: Growth Percentage
  activity at 10 µM: 31.2%
SK-OV-3; SK-OV-3, read-out: LC50
  CC50: > 100 µM
SK-OV-3; SK-OV-3, read-out: TGI
  IC (TGI): > 100 µM
MOLT-4; MOLT-4
  GI50: 2880 nM
  IC50: 4.17 µM
MOLT-4; MOLT-4, 48 h, read-out: Growth Percentage
  activity at 10 µM: 9.11%
MOLT-4; MOLT-4, read-out: LC50
  CC50: > 100 µM
MOLT-4; MOLT-4, read-out: TGI
  IC (TGI): 22.9 µM
SW-620; SW-620
  GI50: 2570 nM
  IC50: 3.72 µM
SW-620; SW-620, 48 h, read-out: Growth Percentage
  activity at 10 µM: 6.92%
SW-620; SW-620, read-out: LC50
  CC50: 46.8 µM
SW-620; SW-620, read-out: TGI
  IC (TGI): 9.77 µM
UACC-257; UACC-257
  GI50: 5.13 µM
  IC50: 18.6 µM
UACC-257; UACC-257, 48 h, read-out: Growth Percentage
  activity at 10 µM: 42.1%
UACC-257; UACC-257, read-out: LC50
  CC50: 75.9 µM
UACC-257; UACC-257, read-out: TGI
  IC (TGI): 21.9 µM
SF-268; SF-268
  GI50: 2630 nM
  IC50: 6.46 µM
SF-268; SF-268, 48 h, read-out: Growth Percentage
  activity at 10 µM: 18.5%
SF-268; SF-268, read-out: LC50
  CC50: 55 µM
SF-268; SF-268, read-out: TGI
  IC (TGI): 11.2 µM
SK-MEL-5; SK-MEL-5
  GI50: 1580 nM
  IC50: 3.31 µM
SK-MEL-5; SK-MEL-5, 48 h, read-out: Growth Percentage
  activity at 10 µM: -64.6%
SK-MEL-5; SK-MEL-5, read-out: LC50
  CC50: 10 µM
SK-MEL-5; SK-MEL-5, read-out: TGI
  IC (TGI): 3.98 µM
